Legend:
Sprague Dawley rats = assay: Respiratory safety pharmacology study; type: in vivo; conditions: single dermal dose 50, 250, 750 mg/kg
[1] = test system: Mild to Moderate Osteoarthritis of the Knee; assay: Phase 2 study: use of rescue medication (paracetamol); type: in vivo, human
Procedure: Subjects taking nonsteroidal anti-inflammatory drugs (NSAID) or other analgesics may enroll in the trial, but will discontinue any analgesic therapy for the duration of the study, starting at least 4 days (or 5 half lives, whichever is longer) prior to administration of the first dose of study medication (i.e., for an analgesic washout period before Day 1). Subjects will be allowed to take rescue medication (up to six 325 mg tablets [total of 1950 mg] of acetaminophen per day; provided by the Sponsor) for residual knee or other body pain starting 4 days (or 5 half lives, whichever is longer) prior to administration of the first dose of study medication except during the 24 hours prior to Baseline (Day 1), Week 2, Week 4, Week 8, Week 12/end of study (EOS), and Follow up assessments.
Subjects will record the following information in a Daily Diary starting at Screening: the amount of knee pain in the target knee while walking during the preceding 24 hours (using a 100 mm visual analog scale [VAS]), the times and number of sprays for each administration of study medication, the times when the subject washes his/her knees and/or takes a shower, the number of tablets of rescue medication taken that day and the times taken, the reason for taking the rescue medication (e.g., knee pain, headache, low back pain), any other concomitant medications taken that day, and any AEs occurring that day.
3.9.3. Exploratory Efficacy Endpoints: • 1. Subject's global assessment of disease status of the target knee at 2, 4, 8, and 12 weeks of treatment; • 2. Investigator's global assessment of disease status of the target knee at 2, 4, 8, and 12 weeks of treatment; • 3. Subject's global assessment of response to therapy of the target knee at 2, 4, 8, and 12 weeks of treatment; • 4. Investigator's global assessment of response to therapy of the target knee at 2, 4, 8, and 12 weeks of treatment; • 5. Change from Baseline over time in VAS pain scores for the target knee from Daily Diary data; • 6. Amount of rescue medication (acetaminophen) consumed per day for target knee pain.
Zeidler thought that paracetamol as rescue medication in nearly all OA trials may be a missing link to explain at least partially the large placebo response in OA trials. (Henning Zeidler, Paracetamol and the Placebo Effect in Osteoarthritis Trials: A Missing Link? Pain Research and Treatment, Volume 2011, 1-6.) From published data, the difference of the used amount of paracetamol is very small between the placebo and active drug cohorts. […] (T. J. Schnitzer, A. Kivitz, H. Frayssinet, and B. Duquesroix, “Efficacy and safety of naproxcinod in the treatment of patients with osteoarthritis of the knee: a 13-week prospective, randomized, multicenter study.” Osteoarthritis and Cartilage, vol. 18, no. 5, pp. 629-639, 2010.) In this trial, NSAIDs or any analgesic therapy was discontinued for the duration of the study, starting at least 14 days (or 5 half lives, whichever is longer) prior to administration of the first dose of study medication (ie, for an analgesic washout period before Day 1). Subjects were allowed to take rescue medication (up to six 325 mg tablets [total of 1950 mg] of acetaminophen per day; provided by the Sponsor) for residual knee or other body pain starting at least 4 days (or 5 half lives, whichever is longer) prior to administration of the first dose of study medication except during the 24 hours prior to Baseline (Day 1), Week 2, Week 4, Week 8, Week 12/end of study (EOS), and Follow-up assessments.

[2] = for all pain and other conditions, 8.75 mg/knee (BID), Week 2
[3] = for all pain and other conditions, 8.75 mg/knee (BID), Week 4
[4] = for all pain and other conditions, 8.75 mg/knee (BID), Week 8
[5] = for all pain and other conditions, 8.75 mg/knee (BID), Week 12
[6] = for all pain and other conditions, 17.5 mg/knee (BID), Week 2
[7] = for all pain and other conditions, 17.5 mg/knee (BID), Week 4

SMILES: CCN(CC)CCOC(=O)C(C)c1ccc(CC(C)C)cc1 (centres unmarked) [2-(diethylamino)ethyl 2-(4-isobutylphenyl)propionate]
- respiratory changes (Sprague Dawley rats): 250, and 750 mg/kg of ibuprofenamine were not associated with respiratory
- patients using rescue medication at the end of the study ([1]; 8.75 mg/knee): 17.3%
- Rescue medication (paracetamol) only for knee pain, daily amount ([1]; 8.75 mg/knee (BID), Day −2 to day −5 (baseline)): 349 mg/day/patient
- Rescue medication (paracetamol) only for knee pain, daily amount ([1]; 8.75 mg/knee (BID), Week 2): 216 mg/day/patient
- Rescue medication (paracetamol), % of decrease from baseline ([1]; 8.75 mg/knee (BID), Week 2): 38.1%
- Rescue medication (paracetamol) only for knee pain, daily amount ([1]; 8.75 mg/knee (BID), Week 4): 167 mg/day/patient
- Rescue medication (paracetamol), % of decrease from baseline ([1]; 8.75 mg/knee (BID), Week 4): 52.1%
- Rescue medication (paracetamol) only for knee pain, daily amount ([1]; 8.75 mg/knee (BID), Week 8): 166 mg/day/patient
- Rescue medication (paracetamol), % of decrease from baseline ([1]; 8.75 mg/knee (BID), Week 8): 52.4%
- Rescue medication (paracetamol) only for knee pain, daily amount ([1]; 8.75 mg/knee (BID), Week 12): 159 mg/day/patient
- Rescue medication (paracetamol), % of decrease from baseline ([1]; 8.75 mg/knee (BID), Week 12): 54.4%
- patients using rescue medication at the end of the study ([1]; 17.5 mg/knee): 6.5%
- Rescue medication (paracetamol) only for knee pain, daily amount ([1]; 17.5 mg/knee (BID), Day −2 to day −5 (baseline)): 243 mg/day/patient
- Rescue medication (paracetamol) only for knee pain, daily amount ([1]; 17.5 mg/knee (BID), Week 2): 86 mg/day/patient
- Rescue medication (paracetamol), % of decrease from baseline ([1]; 17.5 mg/knee (BID), Week 2): 64.6%
- Rescue medication (paracetamol) only for knee pain, daily amount ([1]; 17.5 mg/knee (BID), Week 4): 67 mg/day/patient
- Rescue medication (paracetamol), % of decrease from baseline ([1]; 17.5 mg/knee (BID), Week 4): 72.4%
- Rescue medication (paracetamol) only for knee pain, daily amount ([1]; 17.5 mg/knee (BID), Week 8): 54 mg/day/patient
- Rescue medication (paracetamol), % of decrease from baseline ([1]; 17.5 mg/knee (BID), Week 8): 77.8%
- Rescue medication (paracetamol) only for knee pain, daily amount ([1]; 17.5 mg/knee (BID), Week 12): 56 mg/day/patient
- Rescue medication (paracetamol), % of decrease from baseline ([1]; 17.5 mg/knee (BID), Week 12): 77.0%
- use of rescue medication for all pain and other conditions ([1]; 17.5 mg/knee and 35 mg/knee groups, week 12): less than 100 mg/day/patient
- patients using rescue medication at the end of the study ([1]; 35 mg/knee): 5.8%
- Rescue medication (paracetamol) only for knee pain, daily amount ([1]; 35 mg/knee (BID), Day −2 to day −5 (baseline)): 291 mg/day/patient
- Rescue medication (paracetamol) only for knee pain, daily amount ([1]; 35 mg/knee (BID), Week 2): 98 mg/day/patient
- Rescue medication (paracetamol), % of decrease from baseline ([1]; 35 mg/knee (BID), Week 2): 66.3%
- Rescue medication (paracetamol) only for knee pain, daily amount ([1]; 35 mg/knee (BID), Week 4): 88 mg/day/patient
- Rescue medication (paracetamol), % of decrease from baseline ([1]; 35 mg/knee (BID), Week 4): 69.8%
- Rescue medication (paracetamol) only for knee pain, daily amount ([1]; 35 mg/knee (BID), Week 8): 54 mg/day/patient
- Rescue medication (paracetamol), % of decrease from baseline ([1]; 35 mg/knee (BID), Week 8): 81.4%
- Rescue medication (paracetamol) only for knee pain, daily amount ([1]; 35 mg/knee (BID), Week 12): 44 mg/day/patient
- Rescue medication (paracetamol), % of decrease from baseline ([1]; 35 mg/knee (BID), Week 12): 84.9%
- Daily amount of rescue medication (paracetamol) ([1]; for all pain and other conditions, 8.75 mg/knee (BID), Day −2 to day −5 (baseline)): 364 mg/day/patient
- Daily amount of rescue medication (paracetamol) [1, 2]: 263 mg/day/patient
- Rescue medication (paracetamol), % of decrease from baseline [1, 2]: 27.7%
- Daily amount of rescue medication (paracetamol) [1, 3]: 208 mg/day/patient
- Rescue medication (paracetamol), % of decrease from baseline [1, 3]: 42.9%
- Daily amount of rescue medication (paracetamol) [1, 4]: 210 mg/day/patient
- Rescue medication (paracetamol), % of decrease from baseline [1, 4]: 42.3%
- Daily amount of rescue medication (paracetamol) [1, 5]: 209 mg/day/patient
- Rescue medication (paracetamol), % of decrease from baseline [1, 5]: 42.6%
- Daily amount of rescue medication (paracetamol) ([1]; for all pain and other conditions, 17.5 mg/knee (BID), Day −2 to day −5 (baseline)): 278 mg/day/patient
- Daily amount of rescue medication (paracetamol) [1, 6]: 136 mg/day/patient
- Rescue medication (paracetamol), % of decrease from baseline [1, 6]: 51.1%
- Daily amount of rescue medication (paracetamol) [1, 7]: 115 mg/day/patient
- Rescue medication (paracetamol), % of decrease from baseline [1, 7]: 58.6%
- Daily amount of rescue medication (paracetamol) ([1]; for all pain and other conditions, 17.5 mg/knee (BID), Week 8): 87 mg/day/patient

— patent US20240024273A1, “TOPICAL ADMINISTRATION OF 2-(DIETHYLAMINO)ETHYL 2-(4-ISOBUTYLPHENYL)PROPRIONATE FOR TREATMENT OF DISEASES” (TECHFIELDS PHARMA CO., LTD., priority 2020, published 2024)
